In ChEMBL document CHEMBL1142463 (Bioorg Med Chem Lett, 2008):

Tests used:
Phospholipase A2 group V [1] = target: T1, Phospholipase A2 group V (Mus musculus, UniProt P97391); experiment: Inhibition of mouse sPLA2 group 5
T1 sequence (P97391 whole entry): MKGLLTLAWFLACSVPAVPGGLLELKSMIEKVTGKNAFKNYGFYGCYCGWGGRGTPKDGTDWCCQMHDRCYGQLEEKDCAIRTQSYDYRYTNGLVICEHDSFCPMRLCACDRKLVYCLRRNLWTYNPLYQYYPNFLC

Phospholipase A2 group V [2] = target: T2, Phospholipase A2 group V (Homo sapiens, UniProt P39877); experiment: Inhibition of human sPLA2 group 5
T2 sequence (P39877 whole entry): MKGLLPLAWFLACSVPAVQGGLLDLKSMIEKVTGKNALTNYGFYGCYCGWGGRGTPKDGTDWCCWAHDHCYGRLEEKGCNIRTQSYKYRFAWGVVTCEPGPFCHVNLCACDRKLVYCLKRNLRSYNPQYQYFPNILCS

[3] = target: T3, Phospholipase A2, membrane associated (Rattus norvegicus, UniProt P14423); experiment: Inhibition of rat sPLA2 group 2A
T3 sequence (P14423 whole entry): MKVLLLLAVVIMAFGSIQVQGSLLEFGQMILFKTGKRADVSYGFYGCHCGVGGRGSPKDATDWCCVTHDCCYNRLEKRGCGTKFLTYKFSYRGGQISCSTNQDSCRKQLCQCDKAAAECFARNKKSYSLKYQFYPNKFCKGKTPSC

[4] = target: T4, Phospholipase A2, membrane associated (Mus musculus, UniProt P31482); experiment: Inhibition of mouse sPLA2 group 2A
T4 sequence (P31482 whole entry): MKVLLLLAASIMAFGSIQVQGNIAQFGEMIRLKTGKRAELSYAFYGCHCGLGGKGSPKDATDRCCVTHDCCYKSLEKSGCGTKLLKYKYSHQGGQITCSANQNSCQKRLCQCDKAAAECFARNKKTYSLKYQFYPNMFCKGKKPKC

[5] = target: T5, Phospholipase A2, membrane associated (Homo sapiens, UniProt P14555); experiment: Inhibition of human sPLA2 group 2A
T5 sequence (P14555 whole entry): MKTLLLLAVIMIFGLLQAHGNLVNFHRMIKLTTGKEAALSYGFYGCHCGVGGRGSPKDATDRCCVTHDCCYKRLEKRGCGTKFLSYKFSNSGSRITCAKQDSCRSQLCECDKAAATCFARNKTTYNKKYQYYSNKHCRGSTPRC

[6] = target: T6, Group 10 secretory phospholipase A2 (Homo sapiens, UniProt O15496); experiment: Inhibition of human sPLA2 group 10
T6 sequence (O15496 whole entry): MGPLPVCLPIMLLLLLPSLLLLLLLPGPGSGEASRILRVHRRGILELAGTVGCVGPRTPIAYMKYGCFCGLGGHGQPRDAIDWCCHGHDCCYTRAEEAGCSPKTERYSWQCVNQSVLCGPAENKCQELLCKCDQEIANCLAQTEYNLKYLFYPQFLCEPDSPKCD

[7] = target: T7, Group 10 secretory phospholipase A2 (Mus musculus, UniProt Q9QXX3); experiment: Inhibition of mouse sPLA2 group 10
T7 sequence (Q9QXX3 whole entry): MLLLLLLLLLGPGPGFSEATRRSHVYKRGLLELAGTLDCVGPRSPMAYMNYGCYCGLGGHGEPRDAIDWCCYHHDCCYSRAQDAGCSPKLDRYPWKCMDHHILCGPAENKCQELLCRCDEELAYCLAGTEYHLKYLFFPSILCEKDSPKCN

[8] = target: Phospholipase A2, membrane associated (Oryctolagus cuniculus, UniProt P14422); experiment: Inhibition of rabbit sPLA2 group 2A
Phospholipase A2, membrane associated (Oryctolagus cuniculus, UniProt P14422), sequence (P14422 whole entry): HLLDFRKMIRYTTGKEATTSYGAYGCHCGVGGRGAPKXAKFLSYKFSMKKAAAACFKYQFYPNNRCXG

Question: Which results are given for `CCCCCCCCCCCC(=O)c1c(O)c(C)c(O)c(C(=O)CCCCCCCCCCC)c1O`?
Answer: IC50 (Phospholipase A2 group V [1]): 1600 nM; IC50 (Phospholipase A2 group V [2]): 530 nM; IC50 [3]: 80 nM; IC50 [4]: 60 nM; IC50 [5]: 690 nM; IC50 [6]: > 1600 nM; IC50 [7]: > 1600 nM

Question: With `CCCCCCCCCCCC(=O)c1cc(C)cc(C(=O)CCCCCCCCCCC)c1O` as the molecule, how does the IC50 (Phospholipase A2 group V [1]) read?
Answer: > 1600 nM

Question: What about the IC50 (Phospholipase A2 group V [2]) of the same molecule?
Answer: > 1600 nM

Question: And the IC50 [4]?
Answer: > 1600 nM

Question: And the IC50 [5]?
Answer: > 1600 nM

Question: What about the IC50 [6] of the same molecule?
Answer: > 1600 nM

Question: And the IC50 [7]?
Answer: > 1600 nM

Question: With `Oc1ccc(C2CCc3ccc(O)cc3O2)cc1` (stereo not drawn) as the molecule, how does the IC50 [3] read?
Answer: > 3300 nM

Question: What about the IC50 [4] of the same molecule?
Answer: > 3300 nM

Question: What about the IC50 [5] of the same molecule?
Answer: > 3300 nM

Question: How did the IC50 (Phospholipase A2 group V [1]) turn out when `Cc1c(O)c(C(=O)Cc2ccccc2)c(O)c(C(=O)Cc2ccccc2)c1O` was run?
Answer: > 1600 nM

Question: And the IC50 (Phospholipase A2 group V [2])?
Answer: > 1600 nM

Question: What about the IC50 [4] of the same molecule?
Answer: > 1600 nM

Question: And the IC50 [5]?
Answer: > 1600 nM

Question: And the IC50 [6]?
Answer: > 1600 nM

Question: What about the IC50 [7] of the same molecule?
Answer: > 1600 nM

Question: With `CCCCCCCCCCCC(=O)c1c(O)c(C(=O)CCCCCCCCCCC)c(O)c(C2CC(c3ccc(O)cc3)Oc3cc(O)ccc32)c1O` (stereo not drawn) as the molecule, how does the IC50 (Phospholipase A2 group V [1]) read?
Answer: 520 nM

Question: What about the IC50 [4] of the same molecule?
Answer: 30 nM

Question: And the IC50 [7]?
Answer: > 1600 nM

Question: Which IC50 (Phospholipase A2 group V [1]) does the source give for `CCCCCCCCCCCC(=O)c1cc(C(=O)CCCCCCCCCCC)c(O)cc1O` here?
Answer: > 1600 nM

Question: And the IC50 (Phospholipase A2 group V [2])?
Answer: > 1600 nM

Question: And the IC50 [4]?
Answer: > 1600 nM

Question: What about the IC50 [5] of the same molecule?
Answer: > 1600 nM

Question: And the IC50 [6]?
Answer: > 1600 nM

Question: And the IC50 [7]?
Answer: > 1600 nM

Question: Which IC50 (Phospholipase A2 group V [1]) does the source give for `CCCCCCCCCCCCc1c(O)c(C(C)=O)c(O)c(C(C)=O)c1O` here?
Answer: > 1600 nM

Question: And the IC50 (Phospholipase A2 group V [2])?
Answer: > 1600 nM

Question: What about the IC50 [4] of the same molecule?
Answer: > 1600 nM

Question: And the IC50 [5]?
Answer: > 1600 nM

Question: And the IC50 [6]?
Answer: > 1600 nM

Question: And the IC50 [7]?
Answer: > 1600 nM

Question: For `CCCCCCCCCCCCc1c(O)cc(O)c(C(=O)CCCCCCCCCCC)c1O`, which IC50 (Phospholipase A2 group V [1]) is on record?
Answer: > 1600 nM

Question: And the IC50 (Phospholipase A2 group V [2])?
Answer: > 1600 nM

Question: And the IC50 [4]?
Answer: > 1600 nM

Question: And the IC50 [5]?
Answer: > 1600 nM

Question: And the IC50 [6]?
Answer: > 1600 nM

Question: What about the IC50 [7] of the same molecule?
Answer: > 1600 nM

Question: How did the IC50 (Phospholipase A2 group V [1]) turn out when `CCCCCCCCCCCC(=O)c1c(O)cc(O)c(C(=O)CCCCCCCCCCC)c1O` [DIDODECANOYLPHLOROGLUCINOL] was run?
Answer: 1600 nM

Question: What about the IC50 (Phospholipase A2 group V [2]) of the same molecule?
Answer: 1600 nM

Question: And the IC50 [3]?
Answer: 90 nM

Question: What about the IC50 [4] of the same molecule?
Answer: 110 nM

Question: What about the IC50 [5] of the same molecule?
Answer: 1600 nM

Question: And the IC50 [6]?
Answer: > 1600 nM

Question: And the IC50 [7]?
Answer: > 1600 nM

Question: And the IC50 [8]?
Answer: 10 nM

Question: `CCCCCCCCCCCC(=O)c1c(O)c(C)c(O)c(C(C)=O)c1O` was tested. Which IC50 (Phospholipase A2 group V [1]) did it give?
Answer: > 1600 nM

Question: What about the IC50 (Phospholipase A2 group V [2]) of the same molecule?
Answer: > 1600 nM

Question: What about the IC50 [4] of the same molecule?
Answer: > 1600 nM

Question: And the IC50 [5]?
Answer: > 1600 nM

Question: And the IC50 [6]?
Answer: > 1600 nM

Question: And the IC50 [7]?
Answer: > 1600 nM

Question: How did the IC50 (Phospholipase A2 group V [1]) turn out when `CC(=O)c1c(O)c(C)c(O)c(C(C)=O)c1O` was run?
Answer: > 1600 nM

Question: And the IC50 (Phospholipase A2 group V [2])?
Answer: > 1600 nM

Question: And the IC50 [4]?
Answer: > 1600 nM

Question: And the IC50 [5]?
Answer: > 1600 nM

Question: And the IC50 [6]?
Answer: > 1600 nM

Question: What about the IC50 [7] of the same molecule?
Answer: > 1600 nM
